pKi: −log10 of the molar value. Where a name gives a salt, the structure may show the parent alone. Read-outs that look alike come from different tables or passages of the source.

Experiment [1] has as its target PCP receptors. The experiment can be described thus: Radioreceptor assay (3H-TCP displacement, rat brain membranes). To be noted: read-out: Ki apparent, 1 nM 3H-TCP, whole rat brain membranes, 1 h incubation, Cheng & Prusoff.
Experiment [2] relates to rat cerebral cortical membranes. To be noted: Goldman et al, FEBS Lett.; cited from earlier work.
For experiment [3], the system named is NMDA. Particulars: Berry et al, Eur. J. Pharm. 1983; binding and behavioral data; cited from earlier work.
The nature of experiment [4]: Behavioral assay (stereotyped behavior, PCP rating scale). It is filed as in vivo, rat (male Sprague-Dawley). As to the method:
Compound No. 4 was tested by an in vivo assay which determined stereotypic behavior in rats treated with the compound. Male Sprague-Dawley rats weighing 200 to 250 g were used in the behavioral experiments. Each rat was used only once. Rats were anesthetized lightly with ether before a 20-gauge needle was used to make a hole in the rat's skull for i.c.v. injection of drugs at a later date. These rats were allowed to recover for at least 1 day before being used in the behavioral assays. On the day of the experiement, rats were placed individually into plastic rat cages and allowed at least 1 hr to acclimate before testing. Drugs were administered to rats in a random, single-blind fashion. Behavioral ratings were taken at 5-min intervals up to 1 hr after drug administration (i.p.) using the PCP rating scale as described by Sturgeon et al [Sturgeon, R. D., Fessler, R. G. and Meltzer, H. Y., "Behavioral Rating Scales for Accessing Phencyclidine-Induced Locomotor Activity. […] Dose-response curves for each treatment were determined at the time of maximal behavioral effect. […] ED50 values and dose-response curves were evaluated using a computerized Finney assay [Statistical Methods in Biological Assays, 2nd Edn., Hatner Pub. […] The ability of the Compound No. 4 to induce stereotyped behavior was assessed at 2.5, 5 and 10 minutes and thereafter every 5 min up to 1 hr after i.p. administration.

The subject of experiment [5] is CAl region of the hippocampus. The experiment can be described thus: Forebrain ischemia assay (carotid occlusion, CA1 hippocampal cell loss). To be noted: 30 mg/kg i.p. 30 min prior to carotid occlusion; 7 days after; n=6 vs 69 saline gerbils; Mann-Whitney U, p<0.005. Type of experiment: in vivo, Mongolian gerbil. As to the method:
Male Mongolian gerbils, 50-70 gm, were used as subjects. Compound No. 4 (30 mg/kg) was injected i.p. 30 minutes prior to carotid occlusion into 6 gerbils. In preparation for surgical procedures, the animals were lightly anesthetized with methoxyflurane and placed upside down on a heated pad with the animal's snout within a nosecone. A mixture of 70 parts nitrous oxide, 30 parts oxygen and 0.5 part halothane was circulated through the nosecone to provide continuous anesthesia throughout the surgical procedure. A midline incision was made in the neck and the carotid arteries were exposed. A length of suture thread was placed under each carotid. The thread was then tightened around each carotid and pressure applied to the thread to insure flow was occluded. Flow was occluded for 4-5 minutes and then the thread was removed. The carotids were visually inspected to confirm that reflow had occurred. The wound was then closed with autoclips and the gerbils allowed to recover. Following surgery, the gerbils were kept alive for 7 days. They were anesthetized with 100 mg/kg sodium pentobarbital and perfused transcardially with saline (with heparin) followed by buffered formalin. The brain was removed, trimmed and prepared for histological processing. Sections (10 microns) were stained with thionin. […]

Experiment [6] deals with NMDA. Particulars: Anis et al, Br. J. Pharmacol. 1983; cited from earlier work.

As for `Cc1cc(O)cc(C)c1C[C@H](N)C(=O)N1CC(C)Cc2ccccc21` (single isomer, unassigned) [Compound No. 6, 1-[-2S-amino-3-(4-hydroxy-2,6-dimethlyphenyl)-1-oxopropyl]-1,2,3,4-tetrahydro-3-methylquinoline, hydrochloride], in experiment [1] (hydrochloride), the pKi (as a rule, the Ki on a negative log10 scale, so that one unit is a factor of ten) was 6.62.
With `Cc1cc(O)cc(C)c1C[C@H](N)C(=O)N1CC(C)Cc2ccccc21` (single isomer, unassigned) [Compound No. 7, 1-[2S-amino-3-(4-hydroxy-2,6-dimethylphenyl)-1-oxopropyl]-1,2,3,4-tetrahydro-3-methylquinoline, hydrochloride], the negative-log Ki (pKi) in experiment [1] (hydrochloride) was 6.06.
On to `CC1CCCN(C2(c3ccccc3)CCCCC2)C1` (single isomer, unassigned; (+)) [(+)-PCMP, (+)-1-(1-phenylcyclohexyl)-3-methylpiperidine], for which the “inhibition of specific binding of [3H]PCP” value in experiment [2] is “potent inhibitor”. For the same molecule, the “stereoselective effect over corresponding isomer in reducing the excitatory action of NMDA” value in experiment [3] is “confirmed”.
For `N[C@@H](Cc1ccc(O)cc1)C(=O)N1CCCc2ccccc21` [Compound No. 1, 1-[2S-amino-3-(4-hydroxyphenyl)-1-oxopropyl]-1,2,3,4-tetrahydroquinoline, monohydrochloride], the pKi in experiment [1] is 5.15.
Regarding `Cc1cc(O)ccc1C[C@H](N)C(=O)N1CCCc2ccccc21` [Compound No. 2, 1-[2S-amino-3-(4-hydroxy-2-methylphenyl)-1-oxopropyl]-1,2,3,4-tetrahydroquinoline, monohydrochloride], the pKi in experiment [1] is 6.10.
The same measure, in the same setting: the figure for `Cc1cc(O)cc(C)c1C[C@H](N)C(=O)N(C)c1ccccc1` [Compound No. 3, αS-amino-4-hydroxy-N,2,6-trimethyl-N-phenylbenzenepropanamide, monohydrochloride] is 5.59.
Consider `Cc1cc(O)cc(C)c1C[C@H](N)C(=O)N1CCCc2ccccc21` [Compound No. 4, 1-[2S-amino-3-(4-hydroxy-2,6-dimethylphenyl)-1-oxopropyl]-1,2,3,4-tetrahydroquinoline, monohydrochloride], for which, in experiment [1], the pKi is 7.80. For the same molecule, in experiment [4] (Rattus norvegicus, ip, rats, PCP rating scale, at time of maximal effect, read-out: ED50 for induction of stereotyped behavior), the ED50 (in general, the dose at which the effect has come halfway, by size or by number of responders) is 11 mg/kg. For the same molecule, the “cell loss in CA1” value in experiment [5] is given as “significantly reduced”.
For the molecule `Cc1cc(O)cc(C)c1C[C@@H](N)C(=O)N1CCCc2ccccc21` [Compound No. 5, 1-[2R-amino-3-(4-hydroxy-2,6-dimethylphenyl)-1-oxopropyl]-1,2,3,4-tetrahydroquinoline, monohydrochloride], the pKi in experiment [1] was 7.00.
As for `Cc1cc(O)cc(C)c1C[C@H](N)C(=O)N1CCc2ccccc21` [Compound No. 8, 1-[2S-amino-3-(4-hydroxy-2,6-dimethylphenyl)-1-oxopropyl]-2,3-dihydro-1H-indole, monohydrochloride], the pKi in experiment [1] was 5.84.
Same read-out and setting: the figure for `COc1ccc2c(c1)CCCN2C(=O)[C@@H](N)Cc1c(C)cc(O)cc1C` [Compound No. 9, 1-[2S-amino-3-(4-hydroxy-2,6-dimethylphenyl)-1-oxopropyl]-1,2,3,4-tetrahydro-6-methoxyquinoline, monohydrochloride] is 5.39.
Turning to `COc1cc(C)c(C[C@H](N)C(=O)N2CCCc3ccccc32)c(C)c1` [Compound No. 10, 1-[2S-amino-3-(4-methoxy-2,6-dimethylphenyl)-1-oxopropyl]-1,2,3,4-tetrahydroquinoline, monohydrochloride], the pKi in experiment [1] was 5.35.
On the same count and under the same terms, for `Cc1cc(O)cc(C)c1C[C@H](N)C(=O)N1CCCc2cccc(O)c21` [Compound No. 11, 1-[2S-amino-3-(4-hydroxy-2,6-dimethylphenyl)-1-oxopropyl]-1,2,3,4-tetrahydro-8-hydroxyquinoline, monohydrochloride] the value was 6.38.
Take `Cc1cc(O)cc(C)c1C[C@H](N)C(=O)N1Cc2ccccc2CCc2ccccc21` [Compound No. 12, 5-[2S-amino-3-(4-hydroxy-2,6-dimethylphenyl)-1-oxopropyl]-5,6,11,12-tetrahydrodibenz[b,f]azocine, monohydrochloride]: in experiment [1], the pKi is 4.70.
With `c1ccc(C2(N3CCCCC3)CCCCC2)cc1` [PCP, Phencyclidine, reference compound], the “reduction of excitatory effects of NMDA as compared to KA and QUIS” value in experiment [6] is “reduce selectively the excitatory effects of NMDA”. The pKi in experiment [1] was 7.02. Also, the “time of peak effects (stereotyped behavior)” value in experiment [4] (PCP 2.0-32 mg/kg i.p.) was found to be 15 min.
Regarding `c1csc(C2(N3CCCCC3)CCCCC2)c1` [TCP, reference compound], the pKi in experiment [1] is 7.70.
With `CC1CCC(c2ccccc2)(N2CCCCC2)CC1` (stereo not drawn) [cis-N-(1-phenyl-4-methylcyclohexyl)piperidine], the “stereoselective effect over corresponding isomer in reducing the excitatory action of NMDA” value in experiment [3] is “confirmed”.
`CNC1(c2ccccc2Cl)CCCCC1=O` (stereo not shown) [ketamine]: the “reduction of excitatory effects of NMDA as compared to KA and QUIS” value in experiment [6] is reported as “reduce selectively the excitatory effects of NMDA”.

The record behind these values is patent publication US6114381A, “Non-heterocyclic β-phenyl-α-aminopropionic acid n-phenyl amides for treatment of neurotoxic injury” (priority 1998, dated 2000).
